PMC9457533, “Study on Metronidazole Acid-Base Behavior and Speciation with Ca^2+ for Potential Applications in Natural Waters” (Molecules, 2022)
Where “and” joins values, the source holds several entries; their conditions need not be identical. Equal entries are not always repeated.

Columns and labels:
[1] = 1H NMR titrations: protonation constants of MNZ; format: physicochemical; conditions: t = 25 °C, I = 0.15 mol L^-1
Procedure: The acid-base behavior of the ligand was also investigated by ^1H NMR. Various spectroscopic titrations were therefore carried out on solutions containing L to determine the values of the chemical shifts, and to refine the protonation constant values. The ^1H NMR spectra, shown in Figure 5 at various pH values and t = 25 °C, show four distinct signals: a singlet associated with CH3 protons, two triplets related to the protons of the two CH2, indicated as CH2a and CH2b, and a singlet of the CH proton present in the imidazole ring. An upfield of 0.3 ppm of the CH chemical shift can be observed as a consequence of the deprotonation of the imidazole group for the pH increase. A similar behavior can be observed for the CH3 in which the chemical shift is 0.2 ppm. […] Furthermore, M-L solutions were analyzed by ^1H NMR at t = 25 °C and I = 0.15 mol L^−1, using a procedure already employed for other systems. The experimental spectra were reported in the Supplementary Materials.
NMR measurements were performed by Varian 500 NMR spectrometer. The ^1H NMR spectra were recorded using 90% H2O and 10% D2O as solvent and the chemical shifts were referred to the 1,4-dioxane signal (δCHdioxane = 3.7 ppm). […] Ca^2+-L spectra were recorded at the same conditions of ionic strength, temperature, and pH range of the free ligand. […]

[2] = Dependence of protonation constants on temperature (van't Hoff equation), thermodynamic parameters; format: physicochemical; conditions: t = 298.15 K, I = 0.15 mol L^-1 NaCl
Procedure: The protonation and formation constants values acquired at the three different temperatures of 15, 25, and 37 °C, listed in Table 1, were used to study their dependence on temperature, as already shown for several systems. The data obtained by the potentiometric measurements were analyzed using the following van’t Hoff equation:logβT = logβθ + ΔH^0(1/θ − 1/T) R ln 10(6) where logβT is the stability constant at a certain temperature (expressed in kelvin), while logβθ is the stability constant at t = 298.15 K, and R is the universal gas constant expressed as 8.314 J K^−1 mol^−1. Using the equation just reported, it was possible to calculate the protonation and formation enthalpies change values, together with Gibbs free energy and entropy changes.
The protonation constant of MNZ (L), formation constant values of Ca^2+(M)-MNZ (L), and titration parameters (analytical concentration of the reagents, standard potential E^0, junction potential) were determined by using BSTAC and STACO programs. LIANA program has provided the parameters characterizing the dependence of the protonation and formation constant values on the temperature and ionic strength. More details on software are present in ref. [59]. ^1H NMR data were processed by HypNMR software, which allows for calculating protonation and formation constant values and the individual chemical shift of species through the observed signals and assuming fast mutual exchange in the NMR time scale. UV-Vis data are processed by the HypSpec program, which allows refining of the protonation and formation constant as well as the molar absorption coefficient values (ε) of the species. The speciation diagrams and the formation percentage of the species are determined by the Hyss program.

- logβ H-NMR ([1]; L + 2H = LH2): 14.13(1)
- logβ H-NMR ([1]; L + H = LH): 11.81(1) ^1
- TΔS ([2]; L + H = LH): 14.1 kcal/mol
- ΔG ([2]; L + H = LH): -15.9 kcal/mol
- ΔH ([2]; L + H = LH): -8 kJ mol^-1 and −8(7) kJ mol^-1
- TΔS ([2]; LH + H = LH2): 0.24 kcal/mol
- ΔG ([2]; LH + H = LH2): -3.35 kcal/mol
- ΔH ([2]; LH + H = LH2): -13 kJ mol^-1 and −13(3) kJ mol^-1
Compound: Cc1ncc([N+](=O)[O-])n1CCO [MNZ, 2-Methyl-5-nitroimidazole-1-ethanol]
